Source: US11980667B2, “Short TAT oligomers for drug delivery” (The Trustees of Columbia University in the City of New York, priority 2017, dated 2024)
Where “and” joins values, the source holds several entries; their conditions need not be identical. Identical values can stand only once.

Experiments:
9L glioma tumors = details: IA-TCH, 1 mL of 0.5 mg/mL, 15 minutes
Experimental: In a separate experiment, 14 days post-implantation of 9L glioma tumors, eight rats were anesthetized and prepared for IA-TCH. Blood flow reduction for TCH was achieved by bolus IV injection of adenosine and esmolol that were flushed with cold saline. […] Animals were sacrificed 15 minutes after TAT injection. Brain tissue was harvested. Gross sections were imaged with multi-spectral imaging (MSI) system using a photon counting cooled fluorescence camera. A 490 nm light was used for excitation while 525 nm filter was used for imaging the emitted light.

9L glioma = test: IA-TCH versus IV delivery: uptake by multi-spectral imaging of gross specimens; assay type: in vivo, rat
From the text: (§1) Comparison of […] and IV TAT delivery. Fisher 344 rats weighing about 200 g were utilized. During initial surgery under ketamine-xylazine isoflurane anesthesia 5×10^5 9 L cells were implanted 3 mm below the skull and 2-3 mm posterior and lateral to the bregma through a 1 mm craniotomy. […] The animals were assigned separately to IV and IA-TCH groups. On the day of drug delivery, animals were sedated with isoflurane and injected with ketamine/xylazine. The tail vein was cannulated for intravenous access. Under aseptic precautions, a tracheostomy and carotid cannulation were performed. Anesthesia was maintained by mechanical ventilation with isoflurane (1.8-2.2%). Thereafter animals were turned prone on a stereotactic frame. The skull was exposed and the region of tumor implantation was shaved to transparency. A laser Doppler probe was implanted on the skull with the aid of a plastic holder to assess cerebral/tumor blood flow. Rectal temperature, pulse pleth (volume), pulse oxygen saturation, EKG, expired and inspired gas composition, brain and skin blood flow with lase Doppler were continuously monitored.
(§2) Transient cerebral hypoperfusion and fluorescein-labeled TAT monomer injection. IA injections were made during TCH by the following method. Reduction of blood flow was achieved by bolus IV injections of adenosine (2 mg) and esmolol (2 mg), and cold saline (1.5 mL at 4° C.). Typically such an intervention decreases cerebral blood flow to about 20% of the baseline. The heart rate response varies from sinus bradycardia to a sinus pause. However, physiological parameters rapidly recover within 3-5 minutes. […] For each animal, a test IA injection was done prior to the onset of hypotension to ensure delivery of the desired injection volume and the injection sequence was resumed after bolus IV injections of hypotensive drugs.
Postmortem imaging. In preliminary experiments, known quantities of fluorescein-labeled TAT monomer was dissolved in intralipid and imaged using the multi-spectral imaging system. The multi-spectral imaging system contained two 470 nm light emitting diodes that evenly illuminated the test sample (Thor Labs Inc., NJ). An Evolve-512 (Photometerics Inc., Tucson, AZ) photon multiplying charge coupled device was used to image the sample through a 530 nm band pass filter. The camera is capable of performing background corrections and measuring the photon counts from the region of interest. Imaging conditions (sample, light source, and camera placements) were standardized throughout the experiment.
Immediately after sacrifice, the brains were harvested and immersed in cold saline. […] Samples were loaded on two capillary glass tubes that were placed alongside the tissue samples. Typically each specimen had 4 sections, one of which through the plane of the tumor was sent for frozen section, the remainder were placed in paraformaldehyde for paraffin blocks and histological sectioning.

[1] = Physiological changes during IA-TCH and IV delivery; assay type: in vivo, rat
From the text: as §1, §2
Physiological parameters. Key parameters included inspired and expired gas composition, laser Doppler skin and brain/tumor blood flow, EKG for heart rate, pleth pulse, oxygen saturation, and rectal temperature which were continuously monitored. Data were analyzed at four time points: baseline, at the time of IA injection, 5 minutes after the start of injection, and at the end of the experiment. […] Immediately after sacrifice, brain tissue was harvested for imaging. All physiological data was recorded at 200 Hz by a Mac Lab data collection system.

N=C(N)NCCC[C@H](NC(=O)CNC(=O)c1ccc2c(c1)C(=O)OC21c2ccc(O)cc2Oc2cc(O)ccc21)C(=O)N[C@@H](CCCCN)C(=O)N[C@@H](CCCCN)C(=O)N[C@@H](CCCNC(=N)N)C(=O)N[C@@H](CCCNC(=N)N)C(=O)N[C@@H](CCC(N)=O)C(=O)N[C@@H](CCCNC(=N)N)C(=O)N[C@@H](CCCNC(=N)N)C(=O)N[C@@H](CCCNC(=N)N)C(=O)N1CCC[C@H]1C(=O)N1CCC[C@H]1C(=O)N[C@@H](CCC(N)=O)C(=O)N[C@@H](CCC(N)=O)C(=O)O [fluorescein-labeled TAT monomer, 5-FAM-GRKKRRQRRR PPQQ-COOH]
Concentration in the tumor versus the opposite side (9L glioma tumors): 13 ×
Uptake in the tumor compared to adjacent regions (9L glioma tumors): 5 ×
Tumor concentration compared to brain tissue on the ipsi-lateral side (9L glioma; IA-TCH): 6.1 fold
Contralateral fluorescence (9L glioma; IA-TCH, n = 6): 0.029 ± 0.012 AU
Ipsi/contra-lateral ratio (9L glioma; IA-TCH, n = 6): 1.7 ± 0.5
Ipsilateral fluorescence (9L glioma; IA-TCH, n = 6): 0.047 ± 0.019 AU
Tumor fluorescence (9L glioma; IA-TCH, n = 6): 0.277 ± 0.139 AU
Tumor/contralateral ratio (9L glioma; IA-TCH, n = 6): 10.1 ± 4.9
Tumor/ipsilateral ratio (9L glioma; IA-TCH, n = 6): 6.1 ± 2.6
Tumor concentration compared to brain tissue on the ipsi-lateral side (9L glioma; IV): 2.3 fold and 2.4 fold
Ipsi/contra-lateral ratio (9L glioma; IV, n = 6): 1.1 ± 0.3
Ipsilateral fluorescence (9L glioma; IV, n = 6): 0.028 ± 0.005 AU
Tumor fluorescence (9L glioma; IV, n = 6): 0.063 ± 0.030 AU
Tumor/contralateral ratio (9L glioma; IV, n = 6): 2.7 ± 1.5
Tumor/ipsilateral ratio (9L glioma; IV, n = 6): 2.4 ± 1.2
Overall effectiveness of IA-TCH relative to IV (9L glioma; rat, in vivo): 4 ×
CBF ([1]; IA-TCH, 5 min): 90 ± 32 % Δbase
ETCO2 ([1]; IA-TCH, 5 min): 71 ± 17 % Δbase
HR ([1]; IA-TCH, 5 min): 273 ± 59 BMP
Isoflurane ([1]; IA-TCH, 5 min): 1.8 ± 0.8 ET %
SaO2 ([1]; IA-TCH, 5 min): 95%
Sk · BF ([1]; IA-TCH, 5 min): 104 ± 38 % Δbase
Temp ([1]; IA-TCH, 5 min): 36.6 ± 1.1 °C
CBF ([1]; IA-TCH, Base): 100 ± 0 % Δbase
ETCO2 ([1]; IA-TCH, Base): 100 ± 0 % Δbase
HR ([1]; IA-TCH, Base): 289 ± 19 BMP
Isoflurane ([1]; IA-TCH, Base): 2.2 ± 0.2 ET %
SaO2 ([1]; IA-TCH, Base): 98 ± 2%
Sk · BF ([1]; IA-TCH, Base): 100 ± 0 % Δbase
Temp ([1]; IA-TCH, Base): 37.1 ± 1.3 °C
CBF ([1]; IA-TCH, End): 81 ± 13 % Δbase
ETCO2 ([1]; IA-TCH, End): 92 ± 27 % Δbase
HR ([1]; IA-TCH, End): 310 ± 11 BMP
Isoflurane ([1]; IA-TCH, End): 2.2 ± 0.4 ET %
Sk · BF ([1]; IA-TCH, End): 92 ± 16 % Δbase
Temp ([1]; IA-TCH, End): 36.9 ± 1.1 °C
CBF ([1]; IA-TCH, Injection): 29 ± 26 % Δbase
ETCO2 ([1]; IA-TCH, Injection): 54 ± 50 % Δbase
HR ([1]; IA-TCH, Injection): 63 ± 41 BMP
Isoflurane ([1]; IA-TCH, Injection): 0.8 ± 0.9 ET %
SaO2 ([1]; IA-TCH, Injection): 92 ± 11 %
Sk · BF ([1]; IA-TCH, Injection): 18 ± 10 % Δbase
Temp ([1]; IA-TCH, Injection): 36.6 ± 1.3 °C
CBF ([1]; IV, 5 min): 73 ± 13b % Δbase
ETCO2 ([1]; IV, 5 min): 85 ± 37 % Δbase
HR ([1]; IV, 5 min): 267 ± 68 BMP
Isoflurane ([1]; IV, 5 min): 2.1 ± 0.2 ET %
SaO2 ([1]; IV, 5 min): 97 ± 4%
Sk · BF ([1]; IV, 5 min): 106 ± 28 % Δbase
Temp ([1]; IV, 5 min): 36.1 ± 0.9 °C
CBF ([1]; IV, Base): 100 ± 0 % Δbase
ETCO2 ([1]; IV, Base): 100 ± 0 % Δbase
HR ([1]; IV, Base): 267 ± 17 BMP
Isoflurane ([1]; IV, Base): 2.2 ± 0.3 ET %
SaO2 ([1]; IV, Base): 100 ± 5%
Sk · BF ([1]; IV, Base): 100 ± 0 % Δbase
Temp ([1]; IV, Base): 35.9 ± 0.9 °C
CBF ([1]; IV, End): 73 ± 12b % Δbase
ETCO2 ([1]; IV, End): 86 ± 14 % Δbase
HR ([1]; IV, End): 283 ± 10 BMP
Isoflurane ([1]; IV, End): 2.1 ± 0.3 ET %
SaO2 ([1]; IV, End): 99 ± 2%
Sk · BF ([1]; IV, End): 116 ± 30 % Δbase
Temp ([1]; IV, End): 36.5 ± 1.0 °C
CBF ([1]; IV, Injection): 122 ± 21 % Δbase
ETCO2 ([1]; IV, Injection): 75 ± 39 % Δbase
HR ([1]; IV, Injection): 274 ± 31 BMP
Isoflurane ([1]; IV, Injection): 0.4 ± 0.1 ET %
SaO2 ([1]; IV, Injection): 97 ± 4%
Sk · BF ([1]; IV, Injection): 144 ± 50a,# % Δbase
Temp ([1]; IV, Injection): 35.9 ± 0.9 °C
